Data taken from ChEMBL document CHEMBL2074237, “Biological activity of persimmon (Diospyros kaki) peel extracts” (Phytother Res, 2003).

Biological target: ATP-dependent translocase ABCB1 (Homo sapiens, UniProt P08183)
Experiment: TP_TRANSPORTER: inhibition of Rhodamine 123 efflux (R123: 5.2 micro;M) in MDR1 transfected L-5178 cells
Type: functional, cell-based
Details: mouse

Sequence of ATP-dependent translocase ABCB1 (P08183 whole entry): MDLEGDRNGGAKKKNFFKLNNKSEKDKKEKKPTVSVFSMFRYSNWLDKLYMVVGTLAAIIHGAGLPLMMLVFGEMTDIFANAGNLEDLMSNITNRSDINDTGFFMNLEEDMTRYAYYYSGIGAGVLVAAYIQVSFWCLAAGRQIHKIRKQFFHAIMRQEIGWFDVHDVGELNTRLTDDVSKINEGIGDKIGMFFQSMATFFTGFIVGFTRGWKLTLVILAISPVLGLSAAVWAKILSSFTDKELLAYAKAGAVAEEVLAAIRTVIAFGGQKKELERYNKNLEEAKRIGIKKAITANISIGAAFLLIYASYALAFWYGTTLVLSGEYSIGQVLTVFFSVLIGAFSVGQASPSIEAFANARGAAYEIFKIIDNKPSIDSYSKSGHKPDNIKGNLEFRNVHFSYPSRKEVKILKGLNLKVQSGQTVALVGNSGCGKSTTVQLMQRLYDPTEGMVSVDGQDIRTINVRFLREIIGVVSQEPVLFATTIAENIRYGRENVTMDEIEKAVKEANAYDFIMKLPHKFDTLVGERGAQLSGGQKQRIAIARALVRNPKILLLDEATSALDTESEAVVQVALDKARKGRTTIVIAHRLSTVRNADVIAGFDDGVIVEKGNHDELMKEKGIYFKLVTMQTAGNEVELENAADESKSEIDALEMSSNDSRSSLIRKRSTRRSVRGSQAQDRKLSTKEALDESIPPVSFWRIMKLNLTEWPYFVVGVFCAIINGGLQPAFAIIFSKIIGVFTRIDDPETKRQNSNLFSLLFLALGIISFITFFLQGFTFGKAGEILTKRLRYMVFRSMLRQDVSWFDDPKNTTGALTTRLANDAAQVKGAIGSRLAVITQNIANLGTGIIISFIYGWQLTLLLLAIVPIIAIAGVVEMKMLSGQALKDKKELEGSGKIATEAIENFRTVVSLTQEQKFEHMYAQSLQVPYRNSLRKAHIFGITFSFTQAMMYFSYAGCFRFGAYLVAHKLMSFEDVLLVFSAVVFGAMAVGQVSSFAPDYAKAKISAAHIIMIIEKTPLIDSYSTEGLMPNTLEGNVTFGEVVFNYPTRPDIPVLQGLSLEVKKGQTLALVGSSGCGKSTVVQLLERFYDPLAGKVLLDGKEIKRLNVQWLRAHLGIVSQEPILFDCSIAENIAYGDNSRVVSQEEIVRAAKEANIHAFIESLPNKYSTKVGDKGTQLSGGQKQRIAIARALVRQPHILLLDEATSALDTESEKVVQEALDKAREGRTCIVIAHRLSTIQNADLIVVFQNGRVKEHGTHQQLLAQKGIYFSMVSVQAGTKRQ

In the case of PERSIMMON PEEL EXTRACTS, the Activity is reported as “inhibitor [+]”.
